Residues, ends and D or L forms follow the SMILES beside them. *: point of attachment. Fmoc = O=C(OCC1c2ccccc2-c2ccccc21)*; Cbz = O=C(OCc1ccccc1)*; Boc = CC(C)(C)OC(=O)*
biological target: T1, FGF14:Nav1.6 complex (Homo sapiens, UniProt Q92915); assay: Split-luciferase complementation assay (LCA) in HEK293 cells expressing CLuc-FGF14 and CD4-Nav1.6-NLuc; type: cell-based; conditions: 50 μM, normalized to DMSO control
T1 construct: FGF14 and the C-tail of Nav1.6 channels are fused to vectors expressing CLuc and NLuc luciferase reporter; expressed in transfected cells; host or cells: HEK293, transient transfection
T1 sequence (Q92915 1-252 isoform Q92915-2): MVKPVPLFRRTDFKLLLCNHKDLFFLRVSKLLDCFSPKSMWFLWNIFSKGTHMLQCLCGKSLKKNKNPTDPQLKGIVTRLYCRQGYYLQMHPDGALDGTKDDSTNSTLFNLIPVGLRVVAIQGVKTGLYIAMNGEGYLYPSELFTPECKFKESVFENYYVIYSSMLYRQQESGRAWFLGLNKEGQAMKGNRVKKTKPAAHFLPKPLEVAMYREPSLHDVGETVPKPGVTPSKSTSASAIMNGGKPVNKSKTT
Method: Detailed methods for LCA can be found is known in the art. See e.g., Shavkunov A. S., et al., Methods in Molecular Biology 1278:497-514 (2015). Statistical values were calculated as mean and standard error of the mean (mean±SEM), unless otherwise specified. The statistical significance (*p<0.05) of different groups was determined by Student's t-test, one-way ANOVA with post-hoc Bonferroni's method or Kruskal-Wallis one-way ANOVA on ranks with post-hoc Dunn's method using Sigma Stat (San Jose, Calif.) and Graph PrismR (La Jolla, Calif.) software. Dose-response modulation was determined by: y=START+(END−START)*x^n/(k^n+x^n) where k, Michaelis constant; n, cooperative sites; x, independent variable; y, dependable variable.
To monitor the role of compounds of the invention in the FGF14:Nav1.6 complex, certain embodiments of the invention were screened by split-luciferase complementation assay (LCA) where FGF14 and the C-tail of Nav1.6 channels are fused to vectors expressing CLuc and NLuc luciferase reporter. Compounds of the invention, as exemplified by, compounds ZL0141, ZL0148, ZL0181, and ZL0182 (see FIG. 1) were tested at 50 μM in HEK293 cells expressing CLuc-FGF14 and CD4:Nav1.6-NLuc. […] None of the tested compounds interfered with the full-length luciferase enzyme (FIG. 2B, Chart C). Dose-response studies were then performed with compounds ZL0148, ZL0181, and ZL0182 against the FGF14:Nav1.6 complex.

`CC(C)C[C@H](NC(=O)[C@H](Cc1ccccc1)NC(=O)OCc1ccccc1)C(=O)N1CCC[C@H]1C(N)=O` [ZL0141, Z-Phe-Leu-Pro-NH2] (Cbz-Phe-Leu-Pro-NH2) and `CC(=O)N[C@@H](Cc1ccccc1)C(=O)N[C@@H](CC(C)C)C(=O)N1CCC[C@H]1C(=O)N[C@@H](CCCCNC(=O)OCC1c2ccccc2-c2ccccc21)C(=O)O` [ZL0182, Ac-Phe-Leu-Pro-Lys(Fmoc)-OH] (Ac-FLPK(Fmoc)-OH) are within error of each other in “luminescence response compared to control (DMSO)” value: 103±14% for the first, 129±13% for the second.

With `CC(=O)N[C@@H](Cc1ccccc1)C(=O)N[C@@H](CC(C)C)C(=O)N[C@@H](CCCCNC(=O)OC(C)(C)C)C(N)=O` [ZL0148, Ac-Phe-Leu-Lys(Boc)-NH2] (Ac-Phe-Leu-Lys(Boc)-NH2) the “luminescence response compared to control (DMSO)” value was 132±9%.

— patent US10889543B2, “Fine-tune modulators of neuronal excitability for neuropsychiatric disorders” (THE BOARD OF REGENTS OF THE UNIVERSITY OF TEXAS SYSTEM, priority 2016, dated 2021)
